Results reported in patent US11202871B2, “Devices for evaporation and inhalation of active agents” (Emplicure AB, priority 2016, dated 2021).
Counter-ions that a name gives are not always drawn. Like-named read-outs stand apart in the source and are kept apart here. Blank lines part the entries; values can stand above or below the molecule they belong to.

Experiments:
[1] = Description: (§1) Calcium sulphate alpha hemihydrate (CaS) was obtained from Bo Ehrlander AB (Sweden). Clonidine hydrochloride was obtained from PCAS (Finland). Shaped silicon rubbers were used as molds for coins (diameter: 12 mm, thickness: 2 mm). The calcium sulphate was mixed with powder of Clonidine hydrochloride (0.07 g Clonidine hydrochloride/g calcium sulphate) and deionised water (Liquid/Powder ratio of 0.4 (w/w)) to form a homogenous paste, which was used to fill the rubber molds. Once the paste had been applied, the molds were set to dry for at least 12 h under ambient conditions.
The oven temperature was set to approximately 250° C.
(§2) Each coin was weighed and immersed into a beaker containing 200 ml of deionised water. […] The sample was characterized by Shimadzu LC-2030 (Germany) HPLC system with a Genesis C18 analytical column 4 μm (100×2.1 mm i.d.) with a mobile phase of acetonitrile/phosphoric acid, pH 3 (11/89). The wavelength was set to 220 nm.
The reference samples represent the amount of clonidine hydrochloride mg/g calcium sulphate that was loaded before heat treatment.

[2] = calcium sulphate coins, solution 50 μl, 5 mg/ml dispensed; oven approx. 250° C., 0 to 15 minutes
Experimental: as §1, with “with” for “with powder of Clonidine hydrochloride (0.07 g Clonidine hydrochloride/g calcium sulphate) and”, “When” for “Once”, “was” for “had been”
Clonidine hydrochloride solution (50 μl, 5 mg/ml) was dispensed onto the calcium sulphate coins. When the solution was applied, the coins were set to dry for at least 12 h under ambient conditions.
The temperature was set to approximately 250° C.
as §2
The reference samples represent the amount of clonidine hydrochloride that was loaded before heat treatment.

[3] = Oven heating of aluminium oxide ceramic discs loaded with ibuprofen; amount remaining by UV; type: physicochemical; details: Al2O3 discs, oven 250° C. for 15 minutes
Experimental: Ceramic discs comprising ibuprofen (IOL Chemicals and Pharmaceuticals Ltd, India) were prepared using aluminium oxide (Al2O3; Keranova, Sweden) as follows.
(§3) Ceramic discs (Al2O3) with different pore sizes (0.25, 1, 6, 15 and 30 μm) were prepared in two sizes: (i) 63 mm in diameter and 6.3 mm in thickness (pore sizes 0.25, 1 and 6 μm); and (ii) 48 mm in diameter and 6.3 mm in thickness (pore sizes 15 and 30 μm). The porosity was approximately 40% vol and the density 3.75 g/cm^3 for all discs according to product specification.
The discs (pore sizes 0.25, 1, 6, 15 and 30 μm) were soaked in a 400 ml in phosphate buffer with pH 7.4 (one phosphate buffer saline tablet (Sigma-Aldrich, USA) dissolved in 200 ml deionized water) with a concentration of 408.5 μg/ml ibuprofen for 24 hours. The discs were dried in room temperature for 24 hours. […] All discs were measured for concentration of ibuprofen in 400 ml phosphate buffer pH 7.4 at 37° C. (USP paddle method (paddle speed 50 rpm), VanKel 7025, Varian Inc, USA) and the concentration for ibuprofen was measured using a UV spectrophotometer Shimadzu 1800, Japan at a wavelength of 220 nm to determine the amount of ibuprofen in the ceramic discs. The amount of ibuprofen in control discs was measured after 15 hours (i.e. after maximum drug release) and in heat treated discs after 1.5 hours (i.e. the maximal amount drug was at this time point released).

[4] = calcium sulphate coins, nicotine solution 50 μl, 18 mg/ml dispensed
Description: Calcium sulphate coins were obtained as described in Example 3. For the indirect induction test a magnet was molded into the coin. Nicotine and nicotine solutions were supplied and applied, and nicotine levels were detected as described in Example 3.
Metal plate for induction cooker was obtained from Haneström (Sweden). Induction cooker Wilfa ICP-2000 was obtained from Media Markt (Sweden). Magnets (10*1 mm, Samarium Cobalt magnets, 0.4 kg pull) were obtained from first4magnets (UK). IR-thermometer (MS6520A) was obtained from Mastech (USA).
Heat treatment by indirect induction was carried out by placing a metal plate onto the induction cooker. The ceramic coins containing a magnet was applied onto the metal plate and heated on maximum effect (exact temperature was not measured; see FIG. 10).

[5] = calcium sulphate rods soaked 24 hours in pure nicotine; heated 5*10 sec.; max 315° C., 6 W
Description: Aluminium oxide ceramic rods and calcium sulphate rods were obtained as described in Example 3. Nicotine and nicotine solutions were supplied and applied, and nicotine levels were detected as described in Example 3.
Samples were heated using a prototype e-cigarette device (X-Cube II, Smoke) obtained from Devex Mekatronik AB (Sweden). The device is derived from the commercially available e-cigarette X-Cube.
The sample in the device was heated up by a coil that is wrapped around the sample.
The end of the device was connected to a vial via a silicon hose. The vial contained 1 ml of deionised water. To simulate smoking a rod was put into the device and puffing was performed. Puffing involves a sequence of 5 puffs that are each 10 seconds long. After puffing, the hose was removed and flushed with the water. The water was analysed for concentration of nicotine.

[6] = Al2O3 discs, oven 188° C. for 15 minutes
Experimental: as §3
The discs were dried in room temperature for 24 hours. The discs were heated in an oven at 188° C. for 15 minutes, the control discs were not heated.

[7] = for amount of nicotine detected in the reference sample (not heated) / nicotine detected in coins after heating versus reference: pure nicotine (20 mg) dispensed; for amount of nicotine detected in the reference sample (not heated): dried 24 hours
[8] = Liquid/Powder 0.4 (w/w)
Experimental: Calcium sulphate alpha hemihydrate (CaS) was obtained from Bo Ehrlander AB (Sweden). Shaped silicon rubbers were used as molds for coins (diameter: 12 mm, thickness: 2 mm). The calcium sulphate was mixed with a nicotine solution with a concentration of 5 or 20 mg/ml of nicotine (Liquid/Powder ratio of 0.4 (w/w)) to form a homogenous paste, which was filled in the rubber molds. Once the paste was applied, the molds were set to dry for at least 12 h under ambient conditions.
The temperature was set to approximately 200° C.
The sample was characterized by UV-spectrophotometer at a wavelength of 219 nm. The amount nicotine in the samples were then calculated.

[9] = Oven heating of Al2O3 rods soaked in sumatriptan succinate solution; type: physicochemical
Description: Aluminium oxide ceramic rods were obtained from […] (Sweden): […] Oven […] 218 was obtained from Wilfa, (Norway).

[10] = Oven heating of calcium sulphate coins pre-loaded with sumatriptan succinate; type: physicochemical; details: pre-loaded calcium sulphate coins (0.07 g/g calcium sulphate); oven approx. 250° C.
[11] = calcium sulphate rods soaked in pure nicotine, oven approx. 200° C.

amount of clonidine hydrochloride contained in a coin ([1]; calcium sulphate coins, 0.07 g clonidine hydrochloride/g calcium sulphate, coin approx. 0.3 g): approximately 17 mg | time within which almost all of the clonidine hydrochloride was released when heated ([1]; pre-loaded calcium sulphate coins, oven approx. 250° C.): ≤ 15 min | amount of clonidine hydrochloride present in the coins during heating [2]: decreased significantly over time
Structure (SMILES): Clc1cccc(Cl)c1N=C1NCCN1 [clonidine hydrochloride]

amount of ibuprofen remaining after heat treatment ([3]; pore sizes 0.25, 1, 6, 15 and 30 μm, all samples): zero | degradation of ibuprofen on heating (changes in absorbance at other wavelengths) [3]: no significant degradation
Structure (SMILES): CC(C)Cc1ccc(C(C)C(=O)O)cc1 (stereo not drawn) [ibuprofen]

Structure (SMILES): CN1CCCC1c1cccnc1 (stereo not drawn) [nicotine]
nicotine release on induction heating, unheated plate ([4]; heated about 1 or about 5 minutes): Most of the nicotine was released within the first minute | nicotine release on induction heating, pre-heated plate ([4]; plate at least 150° C., heated 5 seconds): a substantial quantity of nicotine was released | nicotine release on heat treatment in e-cigarette device [5]: a heat treatment in the device will result in a nicotine release | amount of nicotine remaining after heat treatment compared to pre-heat treatment control ([6]; pore sizes 0.25, 6, 15 and 30 μm, all samples): very significantly reduced | degradation of nicotine on heating (changes in absorbance at other wavelengths) [6]: no significant degradation | time within which almost all of the nicotine was released when heated ([7]; aluminium oxide rods soaked in 6 mg/ml nicotine solution (diluted e-juice) 24 hours, oven approx. 200° C.): 5 to 10 min | amount of nicotine the rods were able to absorb ([7]; aluminium oxide rods soaked in 6 mg/ml nicotine solution for 24 hours): approximately 135 μg nicotine/rod | amount of nicotine detected in the reference sample (not heated) ([7]; calcium sulphate coins): lower than 20 mg | nicotine detected in coins after heating versus reference ([7]; calcium sulphate coins, oven approx. 200° C.): a lower release of nicotine was detected after heating | amount of nicotine the rods were able to absorb ([7]; calcium sulphate rods soaked in pure nicotine for 24 hours): approximately 20 mg nicotine/rod | nicotine release during heating [7, 11]: Most of the nicotine was released during heating | nicotine release, 5 min versus 1 min of heating [7, 11]: a higher amount was released during 5 min of heating compared to 1 min of heating | amount of nicotine detected in the reference sample (not heated) ([7]; geopolymer coins): about 16 mg | nicotine detected in coins after heating versus reference ([7]; geopolymer coins, oven approx. 200° C.): a lower release of nicotine was detected after heating | amount of nicotine contained in the coins ([8]; calcium sulphate coins mixed with 5 mg/ml nicotine solution): approximately 180 μg | amount of nicotine contained in the coins ([8]; calcium sulphate coins mixed with 20 mg/ml nicotine solution): ~390 µg

Structure (SMILES): CNS(=O)(=O)Cc1ccc2[nH]cc(CCN(C)C)c2c1 [sumatriptan succinate]
amount of sumatriptan succinate the rods were able to absorb ([9]; Al2O3 rods soaked in 20 mg/ml solution for 24 hours): approximately 1 mg sumatriptan succinate/rod | time within which almost all of the sumatriptan succinate was released when heated ([9]; Al2O3 rods soaked in 20 mg/ml solution, oven approx. 300° C.): 5 to 15 min | time within which almost all of the sumatriptan succinate was released when heated [10]: ≤ 15 min
